# Measured values published in patent US11932658B2 (BRISTOL-MYERS SQUIBB COMPANY, priority 2016, dated 2024).
# Target: T1, PAR4 (Homo sapiens, UniProt Q96RI0)
# T1 construct: expressed in transfected cells; host or cells: HEK293 PAR4 Clone 1.2A (BMS Arctic ID 383940)
# T1 sequence (Q96RI0 18-385): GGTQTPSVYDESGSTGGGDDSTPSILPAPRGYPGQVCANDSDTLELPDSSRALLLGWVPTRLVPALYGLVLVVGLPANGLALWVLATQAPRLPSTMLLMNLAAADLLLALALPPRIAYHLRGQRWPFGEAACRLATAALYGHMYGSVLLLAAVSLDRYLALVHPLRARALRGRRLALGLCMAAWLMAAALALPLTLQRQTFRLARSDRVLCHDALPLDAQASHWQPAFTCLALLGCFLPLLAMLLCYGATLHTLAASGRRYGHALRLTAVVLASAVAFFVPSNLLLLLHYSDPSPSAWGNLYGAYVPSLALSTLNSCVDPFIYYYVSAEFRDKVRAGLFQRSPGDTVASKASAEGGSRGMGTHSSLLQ
# Assay: PAR4 FLIPR assay (antagonism of agonist peptide-induced calcium mobilization)
# Assay type: cell-based
# Method in brief: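 Antagonism was taken as block of calcium mobilization evoked by the agonist peptide H-Ala-Phe(4-F)-Pro-Gly-Trp-Leu-Val-Lys-Asn-[…]-NH2, added after 30 min room-temperature compound preincubation in dye-loaded PAR4-transfected HEK293 cells (endogenous PAR1). Fluorescence was read on FDSS, with compound addition alone used as the agonist counter-screen; values come from 11-point concentration-response curves.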
row,IC50,Compound
1,180 nM,"COc1cnc2c(-c3nc4cc(F)c5c(c4s3)C[C@H](CNC(C)=O)O5)cc(C)cc2n1 [Example 219, (R)-N-((5-fluoro-2-(2-methoxy-7-methylquinoxalin-5-yl)-7,8-dihydrobenzofuro[5,4-d]thiazol-7-yl)methyl)acetamide]"
2,1 nM,"COc1cnc2c(-c3nc4c(C)cc5c(c4s3)OC[C@H](COC(=O)Nc3cccc(C#N)c3)O5)cc(C)cc2n1 [Example 46, (R)-(2-(2-methoxy-7-methylquinoxalin-5-yl)-4-methyl-7,8-dihydro-[1,4]dioxino[2′,3′:3,4]benzo[1,2-d]thiazol-7-yl)methyl (3-cyanophenyl)carbamate]"
3,130 nM,"COc1cnc2c(-c3nc4c(C)cc5c(c4s3)OCC(COC(=O)Nc3ccc(-c4cccs4)nc3)O5)cc(C)cc2n1 (centres unmarked) [Example 127, (2-(2-methoxy-7-methylquinoxalin-5-yl)-4-methyl-7,8-dihydro-[1,4]dioxino[2′,3′:3,4]benzo[1,2-d]thiazol-7-yl)methyl (6-(thiophen-2-yl)pyridin-3-yl) carbamate]"
4,1 nM,"CCOC(=O)NC[C@@H]1Cc2c(c(F)cc3nc(-c4cc(C)cc5nc(OC)cnc45)sc23)O1 [Example 260, (S)-ethyl ((5-fluoro-2-(2-methoxy-7-methylquinoxalin-5-yl)-7,8-dihydrobenzofuro[5,4-d]thiazol-7-yl)methyl)carbamate]"
5,1.8 nM,"COc1ccc(NC(=O)OC[C@H]2COc3c(cc(Cl)c4oc(-c5cc(C)cc6nc(OC)cnc56)cc34)O2)cn1 [Example 9, (R)-(6-chloro-8-(2-methoxy-7-methylquinoxalin-5-yl)-2,3-dihydro-[1,4]dioxino[2,3-e]benzofuran-3-yl)methyl (6-methoxypyridin-3-yl)carbamate]"
6,2.3 nM,"COc1cnc2c(-c3nc4cc(F)c5c(c4s3)C[C@](C)(COC(=O)Nc3cccnc3)O5)cc(C)cc2n1 [Example 183, (R)-(5-fluoro-2-(2-methoxy-7-methylquinoxalin-5-yl)-7-methyl-7,8-dihydrobenzofuro[5,4-d]thiazol-7-yl)methyl pyridin-3-ylcarbamate]"
7,1.4 nM,"COc1cnc2c(-c3nc4c(Cl)cc5c(c4s3)OC[C@H](COC(=O)Nc3ccc(C#N)nc3)O5)cc(C)cc2n1 [Example 35, (R)-(4-chloro-2-(2-methoxy-7-methylquinoxalin-5-yl)-7,8-dihydro-[1,4]dioxino[2′,3′:3,4]benzo[1,2-d]thiazol-7-yl)methyl (6-cyanopyridin-3-yl)carbamate]"
8,4.9 nM,"CCOc1cnc2c(-c3nc4ccc5c(c4s3)OC[C@H](COC(=O)Nc3cnc(C)nc3)O5)cc(Cl)cc2c1 [Example 271, (R)-(2-(6-chloro-3-ethoxyquinolin-8-yl)-7,8-dihydro-[1,4]dioxino[2′,3′:3,4]benzo[1,2-d]thiazol-7-yl)methyl (2-methylpyrimidin-5-yl)carbamate]"
9,9.7 nM,"COc1cnc2c(-c3nc4c(C)cc5c(c4s3)OC[C@H](COC(=O)Nc3cncc(C)c3)O5)cc(C)cc2n1 [Example 57, (R)-(2-(2-methoxy-7-methylquinoxalin-5-yl)-4-methyl-7,8-dihydro-[1,4]dioxino[2′,3′:3,4]benzo[1,2-d]thiazol-7-yl)methyl (5-methylpyridin-3-yl)carbamate]"
10,0.6 nM,"COc1cnc2c(-c3nc4c(Cl)cc5c(c4s3)OC[C@H](COC(=O)Nc3cnc4c(c3)ncn4C)O5)cc(C)cc2n1 [Example 67, (R)-(4-chloro-2-(2-methoxy-7-methylquinoxalin-5-yl)-7,8-dihydro-[1,4]dioxino[2′,3′:3,4]benzo[1,2-d]thiazol-7-yl)methyl (3-methyl-3H-imidazo[4,5-b]pyridin-6-yl)carbamate]"
11,1.4 nM,"COC(=O)NC[C@H]1Oc2c(F)cc3nc(-c4cc(C)cc5nc(OC)cnc45)sc3c2[C@@H]1C [Example 255, Methyl (((7S,8S)-5-fluoro-2-(2-methoxy-7-methylquinoxalin-5-yl)-8-methyl-7,8-dihydrobenzofuro[5,4-d]thiazol-7-yl)methyl)carbamate]"
12,2.2 nM,"CCOc1cnc2c(-c3nc4cc(F)c5c(c4s3)C[C@H](COC(=O)Nc3cnc(C)nc3)O5)cc(Cl)cc2c1 [Example 270, (R)-(2-(6-chloro-3-ethoxyquinolin-8-yl)-5-fluoro-7,8-dihydrobenzofuro[5,4-d]thiazol-7-y 1)methyl (2-methylpyrimidin-5-yl)carbamate]"
13,2.3 nM,"COc1cnc2c(-c3nc4cc(F)c5c(c4s3)C[C@H](COC(=O)Nc3ccc(C(=O)N(C)C)cc3)O5)cc(C)cc2n1 [Example 204, (R)-(5-fluoro-2-(2-methoxy-7-methylquinoxalin-5-yl)-7,8-dihydrobenzofuro[5,4-d]thiazo 1-7-yl)methyl (4-(dimethylcarbamoyl)phenyl)carbamate]"
14,2.8 nM,"COc1cnc2c(-c3nc4c(Cl)cc5c(c4s3)OC[C@H](COC(=O)Nc3ccnc(C)c3)O5)cc(C)cc2n1 [Example 33, (R)-(4-chloro-2-(2-methoxy-7-methylquinoxalin-5-yl)-7,8-dihydro-[1,4]dioxino[2′,3′:3,4]benzo[1,2-d]thiazol-7-yl)methyl (2-methylpyridin-4-yl)carbamate]"
15,2.8 nM,"COc1cnc2c(-c3nc4cc(F)c5c(c4s3)C[C@H](COC(=O)Nc3cccc(C(N)=O)c3)O5)cc(Cl)cc2c1 [Example 284, (R)-(2-(6-chloro-3-methoxyquinolin-8-yl)-5-fluoro-7,8-dihydrobenzofuro[5,4-d]thiazol-7-yl)methyl (3-carbamoylphenyl)carbamate]"
16,23 nM,"COc1cnc2c(-c3nc4c(C)cc5c(c4s3)OC[C@H](COC(=O)Nc3cnc(F)c(C)c3)O5)cc(C)cc2n1 [Example 61, (R)-(2-(2-methoxy-7-methylquinoxalin-5-yl)-4-methyl-7,8-dihydro-[1,4]dioxino [2′,3′:3,4]benzo[1,2-d]thiazol-7-yl)methyl (6-fluoro-5-methylpyridin-3-yl)carbamate]"
17,6.1 nM,"COc1cnc2c(-c3nc4c(C)cc5c(c4s3)OCC(COC(=O)Nc3ccc(N4CCCC4)nc3)O5)cc(C)cc2n1 (centres unmarked) [Example 137, (2-(2-methoxy-7-methylquinoxalin-5-yl)-4-methyl-7,8-dihydro-[1,4]dioxino[2′,3′:3,4]benzo[1,2-d]thiazol-7-yl)methyl (6-(pyrrolidin-1-yl)pyridin-3-yl)carbamate]"
18,54 nM,"COc1cnc2c(-c3nc4c(C)cc5c(c4s3)OC[C@H](COC(=O)Nc3ccc(-c4cccs4)nc3)O5)cc(C)cc2n1 [Example 53, (R)-(2-(2-methoxy-7-methylquinoxalin-5-yl)-4-methyl-7,8-dihydro-[1,4]dioxino [2′,3′:3,4]benzo[1,2-d]thiazol-7-yl)methyl (6-(thiophen-2-yl)pyridin-3-yl)carbamate]"
19,1.7 nM,"COc1cc(NC(=O)OC[C@H]2COc3c(cc(Cl)c4nc(-c5cc(C)cc6nc(OC)cnc56)sc34)O2)ccn1 [Example 36, (R)-(4-chloro-2-(2-methoxy-7-methylquinoxalin-5-yl)-7,8-dihydro-[1,4]dioxino[2′,3′:3,4]benzo[1,2-d]thiazol-7-yl)methyl (2-methoxypyridin-4-yl)carbamate]"
20,0.8 nM,"COc1cnc2c(-c3nc4cc(F)c5c(c4s3)C[C@H](COC(=O)Nc3cccnc3)O5)cc(C)cc2n1 [Example 157, (R)-(5-fluoro-2-(2-methoxy-7-methylquinoxalin-5-yl)-7,8-dihydrobenzofuro[5,4-d]thiazo 1-7-yl)methyl pyridin-3-ylcarbamate]"
21,1.8 nM,"COc1cnc2c(-c3nc4c(Cl)cc5c(c4s3)OC[C@H](COC(=O)Nc3ccc(Cl)nc3)O5)cc(C)cc2n1 [Example 32, (R)-(4-chloro-2-(2-methoxy-7-methylquinoxalin-5-yl)-7,8-dihydro-[1,4]dioxino[2′,3′:3,4]benzo[1,2-d]thiazol-7-yl)methyl (6-chloropyridin-3-yl)carbamate]"
22,1.6 nM,"COc1cnc2c(-c3nc4ccc5c(c4s3)OC[C@H](COC(=O)Nc3ccc(C#N)nc3)O5)cc(C)cc2n1 [Example 105, (R)-(2-(2-methoxy-7-methylquinoxalin-5-yl)-7,8-dihydro-[1,4]dioxino[2′,3′:3,4]benzo[1,2-d]thiazol-7-yl)methyl (6-cyanopyridin-3-yl)carbamate]"
23,9.7 nM,"COc1cnc2c(-c3nc4ccc5c(c4s3)C[C@@H]([C@@H](C)O)O5)cc(C)cc2n1 (single isomer, unassigned) [Example 243]"
24,11 nM,"CCOc1cnc2c(-c3nc4cc(F)c5c(c4s3)C[C@@H](CO)O5)cc(C)cc2n1 [Example 152, (S)-(2-(2-ethoxy-7-methylquinoxalin-5-yl)-5-fluoro-7,8-dihydrobenzofuro[5,4-d]thiazol-7-yl)methanol]"
25,2.8 nM,"COc1cnc2c(-c3nc4c(C)cc5c(c4s3)OC[C@H](COC(=O)Nc3cccnc3)O5)cc(CO)cc2n1 [Example 101, (R)-(2-(7-(hydroxymethyl)-2-methoxyquinoxalin-5-yl)-4-methyl-7,8-dihydro-[1,4]dioxino[2′,3′:3,4]benzo[1,2-d]thiazol-7-yl)methyl pyridin-3-ylcarbamate]"
26,2.3 nM,"COc1cnc2c(-c3nc4cc(F)c5c(c4s3)C[C@@H](CNC(=O)C(F)(F)F)O5)cc(C)cc2n1 [Example 215, (S)-2,2,2-trifluoro-N-((5-fluoro-2-(2-methoxy-7-methylquinoxalin-5-yl)-7,8-dihydrobenzofuro[5,4-d]thiazol-7-yl)methyl)acetamide]"
